In test [1] the target is T1, CD73 on U138 neuroglioma cells (Homo sapiens, UniProt P21589).
T1 construct: U138 neuroglioma cells, which express CD73 on their surface; endogenous in cells; host or cells: U138 neuroglioma cells (ATCC)
T1 sequence (P21589 27-549): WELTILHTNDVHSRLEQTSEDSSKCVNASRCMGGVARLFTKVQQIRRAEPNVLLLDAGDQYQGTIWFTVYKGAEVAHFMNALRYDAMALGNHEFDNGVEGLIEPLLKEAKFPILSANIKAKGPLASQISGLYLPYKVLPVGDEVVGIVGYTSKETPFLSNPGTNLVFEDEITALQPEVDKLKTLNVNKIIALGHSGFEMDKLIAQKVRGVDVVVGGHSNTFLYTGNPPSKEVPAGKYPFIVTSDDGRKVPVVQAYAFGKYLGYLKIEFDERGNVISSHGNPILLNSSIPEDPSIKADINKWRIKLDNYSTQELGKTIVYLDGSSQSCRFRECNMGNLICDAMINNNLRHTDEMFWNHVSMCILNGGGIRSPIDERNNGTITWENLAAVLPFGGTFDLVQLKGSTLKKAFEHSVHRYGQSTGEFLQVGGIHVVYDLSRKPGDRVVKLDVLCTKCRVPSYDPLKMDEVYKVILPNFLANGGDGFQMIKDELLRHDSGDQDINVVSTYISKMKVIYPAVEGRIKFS
In words: Inhibition of Ecto-5′-Nucleotidase Activity in U138 Neuroglioma Cells (Assay 2). The format is cell-based. To be noted: 50 μM CMP, 2 hr at 37° C., malachite green readout, read-out: Assay 2: IC50, inhibition of ecto-5′-nucleotidase activity in U138 neuroglioma cells. Summed up: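 Whole-cell CD73 activity in U138 human neuroglioma cells seeded the day before, washed free of phosphate, then given test compound dilutions with 50 μM CMP in HEPES-buffered saline, pH 7.4, DMSO ≤0.1%. Incubated 2 hr at 37° C; released inorganic phosphate in supernatant measured by malachite green; IC50 by nonlinear regression.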

Another test has as its target T2, human CD73 (Homo sapiens, UniProt P21589).
T2 construct: purchased R&D Systems 5795-EN-010
T2 sequence (P21589 27-549): T1 sequence (P21589 27-549)
The test can be described thus: Inhibition of 5′-Nucleotidase Activity of CD73 (Assay 1). It counts as biochemical. To be noted: human CD73 4 ng/ml, 50 μM CMP, 20 min at RT, malachite green readout; read-out: Assay 1: IC50, inhibition of 5′-nucleotidase activity of CD73. Summed up: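 Human CD73 (4 ng/ml final) was incubated with 50 μM CMP in 25 mM Tris-HCl pH 7.4, 0.005% Brij-35 for 20 min at RT. Reactions were stopped with malachite green reagent and absorbance was read at 620 nm. IC50 came from a 4-parameter logistic fit.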

Bounds are passed on as bounds.

The term IC50 denotes the midpoint of a concentration-inhibition curve. For `O=C(O)C(OC[C@H]1O[C@@H](n2cnc3c(NO)nc(I)nc32)[C@H](O)[C@@H]1O)P(=O)(O)O` (stereo partly drawn) [Example 59b, 2-(((2R,3S,4R,5R)-3,4-dihydroxy-5-(6-(hydroxyamino)-2-iodo-9H-purin-9-yl)tetrahydrofuran-2-yl)methoxy)-2-phosphonoacetic acid], the IC50 in test [1] was 100 to 1000 nM; at human CD73 it was less than 100 nM.

Consider `O=C(O)C(OC[C@H]1O[C@@H](n2cnc3c(Cl)nc(Cl)nc32)[C@H](O)[C@@H]1O)P(=O)(O)O` (stereo partly drawn) [Example 62, 2-(((2R,3S,4R,5R)-5-(2,6-dichloro-9H-purin-9-yl)-3,4-dihydroxytetrahydrofuran-2-yl)methoxy)-2-phosphonoacetic acid], for which the IC50 in test [1] is 100 to 1000 nM; at human CD73 it was less than 100 nM.

Regarding `CCOc1nc(Cl)nc2c1ncn2[C@@H]1O[C@H](COC(C(=O)O)P(=O)(O)O)[C@@H](O)[C@H]1O` (stereo partly drawn) [Example 63, 2-(((2R,3S,4R,5R)-5-(2-chloro-6-ethoxy-9H-purin-9-yl)-3,4-dihydroxytetrahydrofuran-2-yl)methoxy)-2-phosphonoacetic acid], the IC50 in test [1] was 100 to 1000 nM; at human CD73, less than 100 nM.

With `O=C(O)C(OC[C@H]1O[C@@H](n2cnc3c(Nc4ccccc4)ncnc32)[C@H](O)[C@@H]1O)P(=O)(O)O` (stereo partly drawn) [Example 65, 2-(((2R,3S,4R,5R)-3,4-dihydroxy-5-(6-(phenylamino)-9H-purin-9-yl)tetrahydrofuran-2-yl)methoxy)-2-phosphonoacetic acid], the concentration for half-maximal inhibition (IC50) (in test [1]; at human CD73) was 100 to 1000 nM each time.

In the case of `O=C(O)C(OC[C@H]1O[C@@H](n2cnc3c(N4CCC(O)CC4)ncnc32)[C@H](O)[C@@H]1O)P(=O)(O)O` (stereo partly drawn) [Example 66, 2-(((2R,3S,4R,5R)-3,4-dihydroxy-5-(6-(4-hydroxypiperidin-1-yl)-9H-purin-9-yl)tetrahydrofuran-2-yl)methoxy)-2-phosphonoacetic acid], the IC50 in test [1] was greater than 1000 nM; on human CD73 it was 100 to 1000 nM.

In the case of `CNc1ncnc2c1ncn2[C@@H]1O[C@H](COC(C(=O)O)P(=O)(O)O)[C@@H](O)[C@H]1O` (stereo partly drawn) [Example 67, 2-(((2R,3S,4R,5R)-3,4-dihydroxy-5-(6-(methylamino)-9H-purin-9-yl)tetrahydrofuran-2-yl)methoxy)-2-phosphonoacetic acid], the half-inhibitory concentration (IC50) in test [1] was greater than 1000 nM; on human CD73, 100 to 1000 nM.

For `O=C(O)C(OC[C@H]1O[C@@H](n2cnc3c(N[C@@H]4CCOC4)nc(Cl)nc32)[C@H](O)[C@@H]1O)C(=O)O` [Example 68, 2-(((2R,3S,4R,5R)-5-(2-chloro-6-(((R)-tetrahydrofuran-3-yl)amino)-9H-purin-9-yl)-3,4-dihydroxytetrahydrofuran-2-yl)methoxy)malonic acid], the IC50 in test [1] was 100 to 1000 nM; at human CD73, less than 100 nM.

`O=C(O)C(OC[C@H]1O[C@@H](n2cnc3c(N[C@@H]4CCOC4)nc(Cl)nc32)[C@H](O)[C@@H]1O)C(=O)O` [Example 69, (R)-2-(((2R,3S,4R,5R)-5-(2-chloro-6-(((R)-tetrahydrofuran-3-yl)amino)-9H-purin-9-yl)-3,4-dihydroxytetrahydrofuran-2-yl)methoxy)malonic Acid]: the half-maximal inhibitory concentration (IC50) in test [1] was greater than 1000 nM; at human CD73, 100 to 1000 nM.

`CCOC(=O)[C@H](OC[C@H]1C[C@@H](n2cnc3cccc(C#N)c3c2=O)[C@H](O)[C@@H]1O)P(=O)(O)O` [Example 73, ((R)-1-(((1R,2R,3S,4R)-4-(5-cyano-4-oxoquinazolin-3(4H)-yl)-2,3-dihydroxycyclopentyl)methoxy)-2-ethoxy-2-oxoethyl)phosphonic Acid]: the 50% inhibitory concentration (IC50) in test [1] is 100 to 1000 nM; on human CD73, less than 100 nM.

Regarding `O=C(O)C(OC[C@H]1O[C@@H](n2cnc3c(N[C@H]4CCOC4)nc(Cl)nc32)[C@H](O)[C@@H]1O)C(=O)O` [Example 83, 2-(((2R,3S,4R,5R)-5-(2-chloro-6-(((S)-tetrahydrofuran-3-yl)amino)-9H-purin-9-yl)-3,4-dihydroxytetrahydrofuran-2-yl)methoxy)malonic acid], the IC50 in test [1] is greater than 1000 nM; at human CD73, 100 to 1000 nM.

Values taken from US10654884B2 (Vitae Pharmaceuticals, Inc., priority 2014, dated 2020).
